For orientation: IC50 means the concentration at which inhibition is half-maximal. As usually defined, the logP is a log measure of how a compound divides between an organic and an aqueous phase.

In ChEMBL document CHEMBL3132757, “A new class of fluorinated 5-pyrrolidinylsulfonyl isatin caspase inhibitors for PET imaging of apoptosis” (Medchemcomm, 2013) one finds IC50 and logP data, which are given here for 17 compounds.

Some results are limits rather than exact numbers.

Data set [1] deals with T1, Caspase-6 (Homo sapiens, UniProt P55212).
T1 sequence (P55212 whole entry): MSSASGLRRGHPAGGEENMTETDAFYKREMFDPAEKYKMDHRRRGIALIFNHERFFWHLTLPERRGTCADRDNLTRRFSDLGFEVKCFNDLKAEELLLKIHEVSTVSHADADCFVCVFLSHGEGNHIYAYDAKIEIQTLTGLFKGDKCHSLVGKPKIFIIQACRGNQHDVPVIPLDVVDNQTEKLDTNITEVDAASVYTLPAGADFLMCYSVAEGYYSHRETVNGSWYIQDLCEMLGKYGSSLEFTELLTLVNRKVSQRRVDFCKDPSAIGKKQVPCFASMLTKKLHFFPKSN
Put plainly: Inhibition of recombinant human caspase-6 expressed in Escherichia coli using Ac-VEID-AMC as substrate preincubated for 30 mins before substrate addition measured after 2 hrs.

Data set [2] addresses T2, Caspase-3 (Homo sapiens, UniProt P42574).
T2 sequence (P42574 whole entry): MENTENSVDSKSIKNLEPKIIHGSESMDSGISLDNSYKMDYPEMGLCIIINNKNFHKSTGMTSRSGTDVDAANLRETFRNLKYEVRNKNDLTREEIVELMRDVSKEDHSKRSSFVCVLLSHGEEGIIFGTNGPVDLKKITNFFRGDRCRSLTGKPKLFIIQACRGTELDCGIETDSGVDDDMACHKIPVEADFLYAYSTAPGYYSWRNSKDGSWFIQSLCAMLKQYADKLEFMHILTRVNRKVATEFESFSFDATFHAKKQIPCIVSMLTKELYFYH
Put plainly: Inhibition of recombinant human caspase-3 expressed in Escherichia coli using Ac-DEVD-AMC as substrate preincubated for 30 mins before substrate addition measured after 2 hrs.

Data set [3] has as its target Caspase-8 (Homo sapiens, UniProt Q14790). Put plainly: Inhibition of recombinant human caspase-8 expressed in Escherichia coli using Ac-IETD-AMC as substrate preincubated for 30 mins before substrate addition measured after 2 hrs.
The nature of data set [4]: Lipophilicity, log P of the compound by HPLC method. Format: physicochemical.
Data set [5] concerns the target T3, Caspase-1 (Homo sapiens, UniProt P29466).
T3 sequence (P29466 whole entry): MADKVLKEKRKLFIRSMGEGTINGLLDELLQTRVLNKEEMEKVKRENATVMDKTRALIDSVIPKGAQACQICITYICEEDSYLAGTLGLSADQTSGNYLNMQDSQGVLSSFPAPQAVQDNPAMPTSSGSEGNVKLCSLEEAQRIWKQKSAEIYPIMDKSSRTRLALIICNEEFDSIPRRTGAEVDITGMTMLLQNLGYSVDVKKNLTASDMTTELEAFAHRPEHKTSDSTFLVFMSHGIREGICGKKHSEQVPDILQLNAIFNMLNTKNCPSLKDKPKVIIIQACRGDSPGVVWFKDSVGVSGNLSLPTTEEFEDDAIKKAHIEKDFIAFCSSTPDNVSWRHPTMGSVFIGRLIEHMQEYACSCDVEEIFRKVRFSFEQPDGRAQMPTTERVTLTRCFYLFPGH
Put plainly: Inhibition of recombinant human caspase-1 expressed in Escherichia coli using Ac-YVAD-AMC as substrate preincubated for 30 mins before substrate addition measured after 2 hrs.

The target in data set [6] is T4, Caspase-7 (Homo sapiens, UniProt P55210).
T4 sequence (P55210 whole entry): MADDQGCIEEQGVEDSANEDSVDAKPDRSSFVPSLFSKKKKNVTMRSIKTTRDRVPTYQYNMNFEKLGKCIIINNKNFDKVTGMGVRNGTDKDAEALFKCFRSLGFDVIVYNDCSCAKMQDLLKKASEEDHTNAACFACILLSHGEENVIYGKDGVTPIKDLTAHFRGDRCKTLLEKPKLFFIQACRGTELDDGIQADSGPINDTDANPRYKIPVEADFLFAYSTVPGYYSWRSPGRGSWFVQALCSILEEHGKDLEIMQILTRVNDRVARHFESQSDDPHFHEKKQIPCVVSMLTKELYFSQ
Description: Inhibition of recombinant human caspase-7 expressed in Escherichia coli using Ac-DEVD-AMC as substrate preincubated for 30 mins before substrate addition measured after 2 hrs.

Sequence of Caspase-8 (Q14790 217-374 limits assumed): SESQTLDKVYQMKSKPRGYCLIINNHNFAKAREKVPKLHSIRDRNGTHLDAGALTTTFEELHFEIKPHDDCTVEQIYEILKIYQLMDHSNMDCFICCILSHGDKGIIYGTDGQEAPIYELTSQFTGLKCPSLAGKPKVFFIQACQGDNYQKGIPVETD
Sequence of Caspase-8 (Q14790 385-479 limits assumed): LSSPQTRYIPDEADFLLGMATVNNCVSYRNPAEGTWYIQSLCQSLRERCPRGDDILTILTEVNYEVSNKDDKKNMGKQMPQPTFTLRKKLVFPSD

Take `O=C1C(=O)N(Cc2ccc(OCCF)cc2)c2ccc(S(=O)(=O)N3CCC[C@H]3COc3ccccc3)cc21`: the IC50 in data set [1] is over 10000 nM; in data set [2], 6.1 nM; in data set [3], over 10000 nM; in data set [5], over 10000 nM. In data set [4], this compound registered a logP of 3.78.
For the compound `COc1ccc(CN2C(=O)C(=O)c3cc(S(=O)(=O)N4CCC[C@H]4CF)ccc32)cc1`, the half-maximal inhibitory concentration (IC50) in data set [1] was over 10000 nM; in data set [2], 13.7 nM; in data set [6], 9.6 nM; in data set [3] it was over 10000 nM; in data set [5], over 10000 nM. Moreover, in data set [4], the logP was found to be 2.65.
In the case of `COC[C@@H]1CCCN1S(=O)(=O)c1ccc2c(c1)C(=O)C(=O)N2Cc1ccc(OCCF)cc1`, the IC50 was over 10000 nM in data set [1]; 8.3 nM in data set [2]; 4.6 nM in data set [6]; over 10000 nM in data set [3]; over 10000 nM in data set [5]. The logP in data set [4] stood at 2.08.
For the compound `O=C1C(=O)N(Cc2ccccc2I)c2ccc(S(=O)(=O)N3CCC[C@H]3CF)cc21`, the IC50 is 3880 nM in data set [1]; 9.6 nM in data set [2]; 24 nM in data set [6]; over 10000 nM in data set [3]; 522 nM in data set [5]. Moreover, in data set [4], the logP came out at 3.25.
On to `O=C1C(=O)N(Cc2nnnn2Cc2ccccc2)c2ccc(S(=O)(=O)N3CCC[C@H]3CF)cc21`, for which the IC50 is over 10000 nM in data set [1]; 4.4 nM in data set [2]; 25.3 nM in data set [6]; over 10000 nM in data set [3]; 1880 nM in data set [5]. The compound also returned a logP in data set [4] of 1.94.
Consider `O=C1C(=O)N(Cc2ccc(Br)cc2)c2ccc(S(=O)(=O)N3CCC[C@H]3CF)cc21`, for which the IC50 in data set [1] is over 10000 nM; in data set [2], 6.2 nM; in data set [6] it was 15.9 nM; in data set [3], over 10000 nM; in data set [5], over 10000 nM. The same compound registered a logP in data set [4] of 3.11.
In the case of `O=C1C(=O)N(Cc2ccc([N+](=O)[O-])cc2)c2ccc(S(=O)(=O)N3CCC[C@H]3CF)cc21`, the IC50 in data set [1] is over 10000 nM; in data set [2] it was 6.3 nM; in data set [6], 11.2 nM; in data set [3], over 10000 nM; in data set [5], over 10000 nM. Besides, in data set [4], the logP was 2.39.
On to `O=C1C(=O)N(Cc2ccc(OCCF)cc2)c2ccc(S(=O)(=O)N3CC4CNCC4C3)cc21` (stereo unspecified), for which the IC50 is over 10000 nM in data set [1]; 2210 nM in data set [2]; 3510 nM in data set [6]; over 10000 nM in data set [3]; over 10000 nM in data set [5]. For the same compound, in data set [4], the logP was found to be 1.19.
`COC[C@@H]1CCCN1S(=O)(=O)c1ccc2c(c1)C(=O)C(=O)N2Cc1ccc(OC)cc1`: the IC50 in data set [1] is over 10000 nM; in data set [2], 17.6 nM; in data set [6], 6.1 nM; in data set [3], over 10000 nM; in data set [5] it was over 10000 nM. In data set [4], this compound gave a logP of 2.2.
As to `O=C1C(=O)N(Cc2ccccc2[N+](=O)[O-])c2ccc(S(=O)(=O)N3CCC[C@H]3CF)cc21`, the IC50 was 5080 nM in data set [1]; 3.1 nM in data set [2]; 19.8 nM in data set [6]; over 10000 nM in data set [3]; 672 nM in data set [5]. Besides, the logP in data set [4] worked out at 2.28.
Take `O=C1C(=O)N(Cc2cccc(I)c2)c2ccc(S(=O)(=O)N3CCC[C@H]3CF)cc21`: the IC50 in data set [1] was over 10000 nM; in data set [2], 11.6 nM; in data set [6], 21.8 nM; in data set [3] it was over 10000 nM; in data set [5], 1700 nM. Further, the logP in data set [4] was determined as 3.21.
As to `O=C1C(=O)N(Cc2ccccc2)c2ccc(S(=O)(=O)N3CCC[C@H]3CF)cc21`, the IC50 in data set [1] is over 10000 nM; in data set [2] it was 13.9 nM; in data set [6] it was 20.4 nM; in data set [3], over 10000 nM; in data set [5], over 10000 nM. The compound further gave a logP in data set [4] of 2.61.
As for `O=C1C(=O)N(Cc2ccc(Cl)cc2)c2ccc(S(=O)(=O)N3CCC[C@H]3CF)cc21`, the IC50 in data set [1] is over 10000 nM; in data set [2] it was 7.1 nM; in data set [6], 14.2 nM; in data set [3], over 10000 nM; in data set [5], over 10000 nM. This compound also gave a logP in data set [4] of 2.96.
In the case of `O=C1C(=O)N(Cc2ccc(F)cc2)c2ccc(S(=O)(=O)N3CCC[C@H]3CF)cc21`, the IC50 was over 10000 nM in data set [1]; 15.2 nM in data set [2]; 14 nM in data set [6]; over 10000 nM in data set [3]; over 10000 nM in data set [5]. This compound also came in with a logP in data set [4] of 2.5.
For `O=C1C(=O)N(Cc2ccc(OCCF)cc2)c2ccc(S(=O)(=O)N3CCC[C@H]3CF)cc21`, the IC50 in data set [1] is over 10000 nM; in data set [2] it was 19.2 nM; in data set [6], 41.4 nM; in data set [3], over 10000 nM; in data set [5] it was over 10000 nM. The logP in data set [4] is 2.33.
Regarding `O=C1C(=O)N(Cc2cccc([N+](=O)[O-])c2)c2ccc(S(=O)(=O)N3CCC[C@H]3CF)cc21`, the IC50 in data set [1] was over 10000 nM; in data set [2] it was 12.8 nM; in data set [6], 16.5 nM; in data set [3], over 10000 nM; in data set [5], 4690 nM. Moreover, in data set [4], the logP was 2.28.
Turning to `O=C1C(=O)N(Cc2ccc(I)cc2)c2ccc(S(=O)(=O)N3CCC[C@H]3CF)cc21`, the IC50 in data set [1] was 3790 nM; in data set [2] it was 8.1 nM; in data set [6], 5.4 nM; in data set [3] it was over 10000 nM; in data set [5], over 10000 nM. The logP in data set [4] turned out to be 3.31.
